Experimental data from paper PMC4076079, “Selective inhibitors of a PAF biosynthetic enzyme lysophosphatidylcholine acyltransferase 2” (Journal of Lipid Research, 2014).

Test system: mouse peritoneal macrophages
Experiment: PAF and lyso-PAF production in LPS-primed, A23187-stimulated peritoneal macrophages
Format: cell-based
Conditions: 5 μM A23187 5 min
Experimental: RAW-mLPCAT2 cells and peritoneal macrophages were seeded in 24-well plates (4 × 10^6 cells/well) for 24 or 2 h, respectively, before treatment. RAW-mLPCAT2 cells were stimulated with 5 μM A23187 for 5 min after a 1 h treatment with the compounds. Peritoneal macrophages were preincubated with 100 ng/ml LPS for 18 h, treated with the compounds for 1 h, and stimulated with 5 μM A23187 for 5 min. To analyze cellular PAF levels, lipids were extracted with 500 μl methanol containing d4-PAF and d4-lyso-PAF as internal standards. Each sample was submitted to solid phase extraction using an Oasis HLB 96-well cartridge cluster (Waters), and PAF and lyso-PAF were measured by LC-MS/MS as previously described ([13]).
Chromatography was performed using an Acquity™ Ultra-performance LC system (Waters) coupled to a TSQ Vantage triple stage quadrupole mass spectrometer (Thermo Scientific) with a HESI-II electrospray ionization source ([13]). Phospholipids were separated on BEH C8 columns (1.7 μm, 2.1 × 30 mm or 1 × 100 mm; Waters) for the analysis of assay products or the composition of cellular PAF and lyso-PAF, respectively. The mobile phase contained 20 mM aqueous ammonium bicarbonate and acetonitrile. The extracts from peritoneal macrophages were separated on a Kinetex C8 column (1.7 μm, 2.1 × 100 mm; Phenomenex, Torrance, CA) by a gradient elution with 0.05% formic acid-water and acetonitrile, using the Nexera X2 system and LCMS-8080 mass spectrometer (Shimadzu, Kyoto, Japan) ([13]). Lyso-PAF, d4-PAF, and d31-DPPC were identified by the choline fragment (m/z 184) as a product ion of selected reaction monitoring in the positive ion mode. Nonlabeled PAF and d4-16:0/20:4 alkyl-PC were determined by fatty acid anions of sn-2 composition (m/z 59 and 303, respectively) in the negative ion mode. […] Signal intensities were determined relative to the internal standard or as the percentage of the positive control.
The effect of TSI-01 on PAF and lyso-PAF biosynthesis was evaluated using thioglycollate-elicited mouse peritoneal macrophages. […]

**Q.** How did the PAF levels (60 μM TSI-01, LPS 18 h, compound 1 h) turn out when `CC(C)OC(=O)c1ccc(N2C(=O)C(Cl)=C(Cl)C2=O)cc1` [TSI-01, propan-2-yl 4-(3,4-dichloro-2,5-dioxopyrrol-1-yl)benzoate] was run?
**A.** below the detection limit

**Q.** What about the “PAF levels in A23187-stimulated cells” value (LPS 100 ng/ml 18 h, TSI-01 1 h) of the same molecule?
**A.** decreased

**Q.** What about the lyso-PAF levels (LPS 100 ng/ml 18 h, TSI-01 1 h) of the same molecule?
**A.** not changed
